We go through five compounds from ChEMBL document CHEMBL1127245, “The effect of heteroatom substitution on a series of phosphonate inhibitors of neutral endopeptidase 24.11” (Bioorg Med Chem Lett, 1994).

Bounds are passed on as bounds.

The assay has as its target T1, Neprilysin (Rattus norvegicus, UniProt P07861).
T1 sequence (P07861 whole entry): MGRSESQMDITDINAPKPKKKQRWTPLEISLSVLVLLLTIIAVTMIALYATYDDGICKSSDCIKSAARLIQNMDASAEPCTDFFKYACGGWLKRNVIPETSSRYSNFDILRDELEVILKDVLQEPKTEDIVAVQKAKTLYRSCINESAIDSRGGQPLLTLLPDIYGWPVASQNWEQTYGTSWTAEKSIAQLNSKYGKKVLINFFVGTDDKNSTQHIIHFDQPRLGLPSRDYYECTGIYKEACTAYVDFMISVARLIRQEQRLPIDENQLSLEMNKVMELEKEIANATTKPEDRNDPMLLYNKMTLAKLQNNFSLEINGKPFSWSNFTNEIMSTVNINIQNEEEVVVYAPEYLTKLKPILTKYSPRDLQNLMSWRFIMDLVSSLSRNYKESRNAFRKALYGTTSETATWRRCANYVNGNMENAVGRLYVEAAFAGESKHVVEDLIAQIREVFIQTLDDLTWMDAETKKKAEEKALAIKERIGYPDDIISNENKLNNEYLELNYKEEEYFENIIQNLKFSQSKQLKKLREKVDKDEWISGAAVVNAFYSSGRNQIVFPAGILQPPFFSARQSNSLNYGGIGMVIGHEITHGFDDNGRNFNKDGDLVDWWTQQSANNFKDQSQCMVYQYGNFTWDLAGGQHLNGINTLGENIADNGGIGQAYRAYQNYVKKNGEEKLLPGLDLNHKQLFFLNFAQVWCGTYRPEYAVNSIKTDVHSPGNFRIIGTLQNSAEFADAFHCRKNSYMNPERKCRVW
Briefly: In vitro inhibitory activity against neutral endopeptidase (NEP 24.11) from rat kidney cortex membranes.
In the case of `O=C(O)CCNC(=O)C(CCP(=O)(O)O)Cc1ccc(-c2ccccc2)cc1` (stereo not given), the midpoint of inhibition, the IC50, lay at 1000 nM.

Compound `O=C(O)CCNC(=O)C(Cc1ccc(-c2ccccc2)cc1)SCP(=O)(O)O` (stereo not given) registered an IC50 of 797 nM.

Consider `O=C(O)CCNC(=O)[C@H](Cc1ccc(-c2ccccc2)cc1)NCP(=O)(O)O`, for which the half-inhibitory concentration (IC50) was 1.6 nM.

Compound `O=C(O)CCNC(=O)C(Cc1ccc(-c2ccccc2)cc1)S(=O)(=O)CP(=O)(O)O` (stereo not given) came in with an IC50 of over 10000 nM.

Compound `O=C(O)CCNC(=O)C(Cc1ccc(-c2ccccc2)cc1)OCP(=O)(O)O` (stereo not given) came in with a concentration for half-maximal inhibition (IC50) of 9.5 nM.

A word on the IC50: it is the concentration at which inhibition is half-maximal. Low readings indicate greater potency, high ones weaker potency.
